Measured values: patent publication US20070099259A1, “ELECTROCHEMICAL ASSAY FOR THE IDENTIFICATION OF MICROORGANISMS” (RAPID LABORATORY MICROSYSTEMS INC., priority 2003, published 2007)

What was measured:
Assay in all cases: Relative respiratory activity with 22 effectors (Example 3)
[1] = system: P. vulgaris ATCC6380; format: cell-based, Proteus vulgaris; settings: 5 μM DCIP, no effector = 100%, n = 20; for activity at 20000 µM: Proteus vulgaris, ATCC6380, effector 20 mM; for relative %-respiratory activity: effector 10 mM
Excerpt: (§1) In this example, each microorganism is subjected to 22 different effector compounds in addition to control measurements. […] For each microorganism, duplicate measurements were made of 22 different effector compounds. In addition, duplicate measurements were made a control test containing no effector compound. One additional measurement was made of a control solution containing the microorganism with ferricyanide but without effector or DCIP.
(§2) In this example, each normalized data set containing duplicate measurements for each of 22 effector compounds is referenced to the duplicate internal controls to allow batch-to-batch comparison. The obtained signals of charge per unit electrode area for the duplicate control measurements are averaged and set at 100% respiratory cycle activity. […] The data set used to generate pattern recognition plots consists of 5 replicate batches (each batch containing duplicate measurements for each of 22 effector compounds) for each cell culture (10 strains). This is used to generate a 50 (columns)×22 (rows) matrix. The matrix is imported into MATLAB (Version 6.0). Factor analysis is performed using the MATLAB Chemometric Toolbox (Version 2.3) and involves the generation of reduced eigenvectors to determine the optimal number of factors, examination of the resulting residuals plots for randomness, and the generation of scores for the first four principle components.

[2] = system: S. cerevisiae; format: cell-based, Saccharomyces cerevisiae; settings: 5 μM DCIP, no effector = 100%, n = 10; for activity at 20000 µM: Saccharomyces cerevisiae, effector 20 mM; for relative %-respiratory activity: effector 10 mM
Excerpt: as §1, §2

[3] = system: E. faecalis; format: cell-based, Enterococcus faecalis; settings: 5 μM DCIP, no effector = 100%, n = 20; for activity at 20000 µM: Enterococcus faecalis, effector 20 mM; for relative %-respiratory activity: effector 10 mM
Excerpt: as §1, §2

[4] = system: E. aerogenes ATCC13048e; format: cell-based, Enterobacter aerogenes; settings: 5 μM DCIP, no effector = 100%, n = 26; for activity at 20000 µM: Klebsiella aerogenes, ATCC13048E, effector 20 mM; for relative %-respiratory activity: effector 10 mM
Excerpt: as §1, §2

[5] = system: S. aureus ATCC6538P; format: cell-based, Staphylococcus aureus; settings: 5 μM DCIP, no effector = 100%, n = 20; for activity at 20000 µM: Staphylococcus aureus, ATCC6538P, effector 20 mM; for relative %-respiratory activity: effector 10 mM
Excerpt: as §1, §2

[6] = system: E. coli JM105; format: cell-based; settings: 5 μM DCIP, no effector = 100%, n = 10; for activity at 20000 µM: Escherichia coli, JM105, effector 20 mM; for relative %-respiratory activity: effector 10 mM
Excerpt: as §1, §2

[7] = system: E. coli Neotype; format: cell-based; settings: 5 μM DCIP, no effector = 100%, n = 26; for activity at 20000 µM: Escherichia coli, effector 20 mM; for relative %-respiratory activity: effector 10 mM
Excerpt: as §1, §2

[8] = system: E. coli B; format: cell-based; settings: 5 μM DCIP, no effector = 100%, n = 10; for activity at 20000 µM: Escherichia coli, effector 20 mM
Excerpt: as §1, §2

[9] = system: E. coli HB101; format: cell-based; settings: 5 μM DCIP, no effector = 100%, n = 18; for activity at 20000 µM: Escherichia coli, HB101, effector 20 mM; for relative %-respiratory activity: effector 10 mM
Excerpt: as §1, §2

[10] = system: P. aeruginosa; format: cell-based, Pseudomonas aeruginosa; settings: 5 μM DCIP, no effector = 100%, n = 18; for activity at 20000 µM: Pseudomonas aeruginosa, effector 20 mM; for relative %-respiratory activity: effector 10 mM
Excerpt: as §1, §2

Row | SMILES | activity at 20000 µM [1] | activity at 20000 µM [2] | activity at 20000 µM [3] | activity at 20000 µM [4] | activity at 20000 µM [5] | activity at 20000 µM [6] | activity at 20000 µM [7] | activity at 20000 µM [8] | activity at 20000 µM [9] | activity at 20000 µM [10] | relative %-respiratory activity [1] | relative %-respiratory activity [2] | relative %-respiratory activity [3] | relative %-respiratory activity [4] | relative %-respiratory activity [5] | relative %-respiratory activity [6] | relative %-respiratory activity [7] | relative %-respiratory activity [9] | relative %-respiratory activity [10] | relative %-respiratory activity ([8]; effector 10 mM)
1 | O=C[C@H](O)[C@@H](O)[C@H](O)CO [D-xylose] | 178% | 116% | 128% | 149% | 128% | 134% | 110% | 102% | 110% | 113% |  |  |  |  |  |  |  |  |  | 
2 | O=P(O)(O)OC(CO)CO [Beta-glycerophosphate] |  |  |  |  |  |  |  |  |  |  | 136% | 105% | 120% | 131% | 114% | 121% | 108% | 110% | 114% | 
3 | O=C(O)CCC(=O)C(=O)O [Alpha-ketoglutarate] |  |  |  |  |  |  |  |  |  |  | 201% | 124% | 109% | 102% | 115% | 142% | 100% | 116% | 97% | 130%
4 | O=C(CO)[C@@H](O)[C@H](O)[C@H](O)CO [D-fructose] | 183% | 152% | 463% | 275% | 289% | 202% | 125% | 147% | 202% | 136% |  |  |  |  |  |  |  |  |  | 
5 | C[C@H](O)[C@H](O)[C@@H](O)[C@@H](O)C=O [L-rhamnose] | 145% | 124% | 105% | 110% | 101% | 116% | 105% | 119% | 103% | 94% |  |  |  |  |  |  |  |  |  | 
6 | O=C[C@H](O)[C@@H](O)[C@@H](O)[C@H](O)CO [D-galactose] | 341% | 143% | 200% | 334% | 195% | 173% | 155% | 165% | 153% | 130% |  |  |  |  |  |  |  |  |  | 
